In patent publication US9458137B2, “Substituted indol-5-ol derivatives and their therapeutical applications” (NantBioScience, Inc., priority 2012, dated 2016):

Experiments:
ROCK-II(h) = biological target: T1, ROCK-II(h) (Homo sapiens, UniProt O75116); experiment: Kinase panel activity; type: biochemical; details: 0.1 μM, ATP Km
T1 construct: purchased Millipore (KinaseProfiler service)
Description: (§1) The effect of NTW-3475 on kinase activity was tested for a wide range of kinases and is shown in Table 2: Summary Sheet, Activity % ATP Concentration: Km

PKBα(h) = PKBα(h) (Homo sapiens, UniProt P31749); experiment: Kinase panel activity; type: biochemical; details: 0.1 μM, ATP Km
Description: as §1

CLK2(h) = CLK2(h) (Homo sapiens, UniProt P49760); experiment: Kinase panel activity; type: biochemical; details: 0.1 μM, ATP Km
Description: as §1

Ab1(Q252H)(h) = Ab1(Q252H)(h) (Homo sapiens, UniProt P00519, Q252H); experiment: Kinase panel activity; type: biochemical; details: 0.1 μM, ATP Km
Description: as §1

CaMKIV(h) = CaMKIV(h) (Homo sapiens, UniProt Q16566); experiment: Kinase panel activity; type: biochemical; details: 0.1 μM, ATP Km
Description: as §1

PRK2(h) = biological target: T2, PRK2(h) (Homo sapiens, UniProt Q16513); experiment: Kinase panel activity; type: biochemical; details: 0.1 μM, ATP Km
T2 construct: purchased Millipore (KinaseProfiler service)
Description: as §1

FGFR3(h) = FGFR3(h) (Homo sapiens, UniProt P22607); experiment: Kinase panel activity; type: biochemical; details: 0.1 μM, ATP Km
Description: as §1

PASK(h) = PASK(h) (Homo sapiens, UniProt Q96RG2); experiment: Kinase panel activity; type: biochemical; details: 0.1 μM, ATP Km
Description: as §1

MSK2(h) = biological target: T3, MSK2(h) (Homo sapiens, UniProt O75676); experiment: Kinase panel activity; type: biochemical; details: 0.1 μM, ATP Km
T3 construct: purchased Millipore (KinaseProfiler service)
Description: as §1

FGFR2(h) = FGFR2(h) (Homo sapiens, UniProt P21802); experiment: Kinase panel activity; type: biochemical; details: 0.1 μM, ATP Km
Description: as §1

BTK(R28H)(h) = BTK(R28H)(h) (Homo sapiens, UniProt Q06187, R28H); experiment: Kinase panel activity; type: biochemical; details: 0.1 μM, ATP Km
Description: as §1

TLK2(h) = biological target: T4, TLK2(h) (Homo sapiens, UniProt Q86UE8); experiment: Kinase panel activity; type: biochemical; details: 0.1 μM, ATP Km
T4 construct: purchased Millipore (KinaseProfiler service)
Description: as §1

Ros(h) = biological target: T5, Ros(h) (Homo sapiens, UniProt P08922); experiment: Kinase panel activity; type: biochemical; details: 0.1 μM, ATP Km
T5 construct: purchased Millipore (KinaseProfiler service)
Description: as §1

ACK1(h) = ACK1(h) (Homo sapiens, UniProt Q07912); experiment: Kinase panel activity; type: biochemical; details: 0.1 μM, ATP Km
Description: as §1

cKit(h) = cKit(h) (Homo sapiens, UniProt P10721); experiment: Kinase panel activity; type: biochemical; details: 0.1 μM, ATP Km
Description: as §1

Arg(h) = Arg(h) (Homo sapiens, UniProt P42684); experiment: Kinase panel activity; type: biochemical; details: 0.1 μM, ATP Km
Description: as §1

TAO3(h) = biological target: T6, TAO3(h) (Homo sapiens, UniProt Q9H2K8); experiment: Kinase panel activity; type: biochemical; details: 0.1 μM, ATP Km
T6 construct: purchased Millipore (KinaseProfiler service)
Description: as §1

CDK2/cyclinE(h) = CDK2/cyclinE(h) (Homo sapiens, UniProt P24941); experiment: Kinase panel activity; type: biochemical; details: 0.1 μM, ATP Km
Description: as §1

Met(M1268T)(h) = biological target: T7, Met(M1268T)(h) (Homo sapiens, UniProt P08581, M1250T); experiment: Kinase panel activity; type: biochemical; details: 0.1 μM, ATP Km
T7 construct: purchased Millipore (KinaseProfiler service)
Description: as §1

ALK4(h) = ALK4(h) (Homo sapiens, UniProt P36896); experiment: Kinase panel activity; type: biochemical; details: 0.1 μM, ATP Km
Description: as §1

CK2α2(h) = CK2α2(h) (Homo sapiens, UniProt P19784); experiment: Kinase panel activity; type: biochemical; details: 0.1 μM, ATP Km
Description: as §1

Ab1(m) = Ab1(m) (Mus musculus, UniProt P00520); experiment: Kinase panel activity; type: biochemical; details: 0.1 μM, ATP Km
Description: as §1

GSK3α(h) = GSK3α(h) (Homo sapiens, UniProt P49840); experiment: Kinase panel activity; type: biochemical; details: 0.1 μM, ATP Km
Description: as §1

Ab1(Y253F)(h) = Ab1(Y253F)(h) (Homo sapiens, UniProt P00519, Y253F); experiment: Kinase panel activity; type: biochemical; details: 0.1 μM, ATP Km
Description: as §1

Lck(h) activated = Lck(h) activated (Homo sapiens, UniProt P06239); experiment: Kinase panel activity; type: biochemical; details: 0.1 μM, ATP Km
Description: as §1

NEK3(h) = NEK3(h) (Homo sapiens, UniProt P51956); experiment: Kinase panel activity; type: biochemical; details: 0.1 μM, ATP Km
Description: as §1

CDK7/cyclinH/MAT1(h) = CDK7/cyclinH/MAT1(h) (Homo sapiens, UniProt P50613); experiment: Kinase panel activity; type: biochemical; details: 0.1 μM, ATP Km
Description: as §1

Syk(h) = biological target: T8, Syk(h) (Homo sapiens, UniProt P43405); experiment: Kinase panel activity; type: biochemical; details: 0.1 μM, ATP Km
T8 construct: purchased Millipore (KinaseProfiler service)
Description: as §1

[1] = system: human MIAPaCa-2 pancreatic carcinoma xenograft; experiment: MIAPaCa-2 pancreatic carcinoma xenograft; type: in vivo, athymic nude-Faxn1 mice
Description: The objective of the third study was to evaluate antitumor activities of novel multiple-kinase inhibitor NTW-3475 in human MIAPaCa-2 pancreatic carcinoma xenograft in athymic nude-Faxn1 mice.
Four animals were randomly assigned to study groups. Each animal was weighed, and then injected subcutaneously in the left and right flank area with 0.1 ml of 5.0×10^7 MIAPaCa-2 cells per mL.
Each test or control animal was on a 5-day on, two-day off for two cycles treatment schedule with negative control vehicle, positive control Abraxane at 20 mg/kg or 25, 50 mg/kg of NTW-3475. Tumor growth was measured with a digital hand held caliper twice weekly (once tumor emerges) prior to the first dosing and then two to three times weekly until euthanized.
FIGS. 42-44 depict the results of various concentrations of NTW-3456 on a nude mouse/xenograft the MIAPaCa-2 model of pancreatic carcinoma.
FIGS. 45 and 46 depict the results of various concentrations of NTW-3456, with or without Abraxane on a MiaPaCa-2 model of pancreatic carcinoma.

BTK(R28H)(h), sequence (Q06187 whole entry R28H): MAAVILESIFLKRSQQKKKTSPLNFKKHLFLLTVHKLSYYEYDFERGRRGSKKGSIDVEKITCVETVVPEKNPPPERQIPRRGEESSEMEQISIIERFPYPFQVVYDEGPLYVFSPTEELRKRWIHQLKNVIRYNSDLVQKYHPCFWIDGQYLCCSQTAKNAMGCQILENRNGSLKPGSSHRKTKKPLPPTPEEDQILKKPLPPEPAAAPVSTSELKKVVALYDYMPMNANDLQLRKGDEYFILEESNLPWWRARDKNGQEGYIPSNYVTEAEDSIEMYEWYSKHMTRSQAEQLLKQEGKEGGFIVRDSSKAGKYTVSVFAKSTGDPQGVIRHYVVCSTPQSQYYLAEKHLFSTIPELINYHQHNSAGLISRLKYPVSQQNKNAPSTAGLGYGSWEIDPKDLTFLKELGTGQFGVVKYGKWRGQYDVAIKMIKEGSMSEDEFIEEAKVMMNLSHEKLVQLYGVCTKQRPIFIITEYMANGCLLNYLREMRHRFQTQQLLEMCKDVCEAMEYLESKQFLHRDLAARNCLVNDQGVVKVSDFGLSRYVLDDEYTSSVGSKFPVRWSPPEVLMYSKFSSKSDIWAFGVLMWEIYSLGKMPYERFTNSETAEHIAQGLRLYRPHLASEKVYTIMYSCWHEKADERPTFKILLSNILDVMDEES
Ab1(m), sequence (P00520 whole entry): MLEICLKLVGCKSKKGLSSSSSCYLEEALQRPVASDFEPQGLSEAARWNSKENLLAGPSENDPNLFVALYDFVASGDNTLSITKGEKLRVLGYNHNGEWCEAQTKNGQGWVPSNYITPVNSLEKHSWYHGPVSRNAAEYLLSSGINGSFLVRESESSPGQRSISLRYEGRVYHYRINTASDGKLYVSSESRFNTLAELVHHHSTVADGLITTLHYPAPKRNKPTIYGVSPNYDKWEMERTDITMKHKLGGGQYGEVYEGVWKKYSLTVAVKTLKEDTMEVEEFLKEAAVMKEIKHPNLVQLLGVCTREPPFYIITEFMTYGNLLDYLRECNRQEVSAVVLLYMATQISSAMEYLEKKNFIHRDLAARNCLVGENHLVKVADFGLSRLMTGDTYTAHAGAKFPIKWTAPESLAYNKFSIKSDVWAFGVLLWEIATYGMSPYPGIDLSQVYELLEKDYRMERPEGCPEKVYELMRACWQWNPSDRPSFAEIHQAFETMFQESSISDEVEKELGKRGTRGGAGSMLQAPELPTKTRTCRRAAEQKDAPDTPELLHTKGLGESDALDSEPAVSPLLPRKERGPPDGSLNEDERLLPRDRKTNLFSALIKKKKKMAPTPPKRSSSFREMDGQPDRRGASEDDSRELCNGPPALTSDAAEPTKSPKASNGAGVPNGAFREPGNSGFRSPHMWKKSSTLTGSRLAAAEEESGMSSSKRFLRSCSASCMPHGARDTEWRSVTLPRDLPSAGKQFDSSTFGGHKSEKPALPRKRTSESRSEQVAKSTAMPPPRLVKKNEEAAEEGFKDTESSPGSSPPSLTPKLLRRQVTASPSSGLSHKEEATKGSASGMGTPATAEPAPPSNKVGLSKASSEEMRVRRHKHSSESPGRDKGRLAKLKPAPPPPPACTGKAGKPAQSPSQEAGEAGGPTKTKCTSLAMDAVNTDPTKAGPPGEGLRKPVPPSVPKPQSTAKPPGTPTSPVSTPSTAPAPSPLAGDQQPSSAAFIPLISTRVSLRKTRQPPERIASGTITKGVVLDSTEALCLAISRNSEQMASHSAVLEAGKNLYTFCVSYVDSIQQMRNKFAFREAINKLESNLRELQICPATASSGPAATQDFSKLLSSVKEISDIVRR
NEK3(h), sequence (P51956 whole entry): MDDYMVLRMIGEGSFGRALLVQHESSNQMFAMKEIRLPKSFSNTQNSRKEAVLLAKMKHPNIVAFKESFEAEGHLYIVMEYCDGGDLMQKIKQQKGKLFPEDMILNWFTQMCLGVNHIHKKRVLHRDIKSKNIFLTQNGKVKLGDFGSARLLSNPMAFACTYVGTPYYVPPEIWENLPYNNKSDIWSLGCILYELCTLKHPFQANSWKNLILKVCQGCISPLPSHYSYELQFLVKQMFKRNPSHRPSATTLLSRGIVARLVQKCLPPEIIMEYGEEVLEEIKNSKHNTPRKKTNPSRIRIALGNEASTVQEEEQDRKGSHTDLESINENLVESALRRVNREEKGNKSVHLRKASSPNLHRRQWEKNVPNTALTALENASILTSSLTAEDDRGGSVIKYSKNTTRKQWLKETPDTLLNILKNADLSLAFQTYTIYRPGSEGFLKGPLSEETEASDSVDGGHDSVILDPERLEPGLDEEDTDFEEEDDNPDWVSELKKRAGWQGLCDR
CK2α2(h), sequence (P19784 whole entry): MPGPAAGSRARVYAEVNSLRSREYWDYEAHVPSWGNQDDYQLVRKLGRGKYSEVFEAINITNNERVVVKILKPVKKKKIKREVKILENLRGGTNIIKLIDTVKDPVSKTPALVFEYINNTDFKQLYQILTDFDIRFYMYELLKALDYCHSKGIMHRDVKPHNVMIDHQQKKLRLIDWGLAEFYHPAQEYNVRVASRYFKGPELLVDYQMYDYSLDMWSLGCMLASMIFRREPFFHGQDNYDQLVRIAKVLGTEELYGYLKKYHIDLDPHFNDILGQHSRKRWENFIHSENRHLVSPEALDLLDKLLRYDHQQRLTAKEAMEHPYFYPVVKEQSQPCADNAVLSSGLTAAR
T3 sequence (O75676 whole entry): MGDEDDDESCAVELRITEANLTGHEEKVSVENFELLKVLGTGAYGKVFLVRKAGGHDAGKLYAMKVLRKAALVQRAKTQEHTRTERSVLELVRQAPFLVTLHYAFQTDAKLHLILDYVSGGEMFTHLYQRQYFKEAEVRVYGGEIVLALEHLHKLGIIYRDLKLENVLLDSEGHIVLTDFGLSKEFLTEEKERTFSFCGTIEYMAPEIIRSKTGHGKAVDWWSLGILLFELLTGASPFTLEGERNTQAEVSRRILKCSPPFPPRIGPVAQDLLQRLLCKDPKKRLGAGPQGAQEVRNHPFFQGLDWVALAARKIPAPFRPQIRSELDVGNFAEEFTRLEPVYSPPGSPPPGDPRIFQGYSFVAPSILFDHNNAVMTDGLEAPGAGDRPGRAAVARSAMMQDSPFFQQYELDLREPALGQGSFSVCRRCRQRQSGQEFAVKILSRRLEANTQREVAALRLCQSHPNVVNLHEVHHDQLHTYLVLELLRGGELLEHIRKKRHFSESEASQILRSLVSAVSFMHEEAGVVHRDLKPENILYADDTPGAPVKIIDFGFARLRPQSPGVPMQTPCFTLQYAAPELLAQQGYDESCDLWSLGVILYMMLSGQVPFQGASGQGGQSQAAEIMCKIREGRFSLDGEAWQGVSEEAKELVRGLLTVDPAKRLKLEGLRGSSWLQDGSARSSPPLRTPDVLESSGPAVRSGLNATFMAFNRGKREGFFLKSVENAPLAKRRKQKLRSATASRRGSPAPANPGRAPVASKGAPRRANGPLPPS
cKit(h), sequence (P10721 26-976): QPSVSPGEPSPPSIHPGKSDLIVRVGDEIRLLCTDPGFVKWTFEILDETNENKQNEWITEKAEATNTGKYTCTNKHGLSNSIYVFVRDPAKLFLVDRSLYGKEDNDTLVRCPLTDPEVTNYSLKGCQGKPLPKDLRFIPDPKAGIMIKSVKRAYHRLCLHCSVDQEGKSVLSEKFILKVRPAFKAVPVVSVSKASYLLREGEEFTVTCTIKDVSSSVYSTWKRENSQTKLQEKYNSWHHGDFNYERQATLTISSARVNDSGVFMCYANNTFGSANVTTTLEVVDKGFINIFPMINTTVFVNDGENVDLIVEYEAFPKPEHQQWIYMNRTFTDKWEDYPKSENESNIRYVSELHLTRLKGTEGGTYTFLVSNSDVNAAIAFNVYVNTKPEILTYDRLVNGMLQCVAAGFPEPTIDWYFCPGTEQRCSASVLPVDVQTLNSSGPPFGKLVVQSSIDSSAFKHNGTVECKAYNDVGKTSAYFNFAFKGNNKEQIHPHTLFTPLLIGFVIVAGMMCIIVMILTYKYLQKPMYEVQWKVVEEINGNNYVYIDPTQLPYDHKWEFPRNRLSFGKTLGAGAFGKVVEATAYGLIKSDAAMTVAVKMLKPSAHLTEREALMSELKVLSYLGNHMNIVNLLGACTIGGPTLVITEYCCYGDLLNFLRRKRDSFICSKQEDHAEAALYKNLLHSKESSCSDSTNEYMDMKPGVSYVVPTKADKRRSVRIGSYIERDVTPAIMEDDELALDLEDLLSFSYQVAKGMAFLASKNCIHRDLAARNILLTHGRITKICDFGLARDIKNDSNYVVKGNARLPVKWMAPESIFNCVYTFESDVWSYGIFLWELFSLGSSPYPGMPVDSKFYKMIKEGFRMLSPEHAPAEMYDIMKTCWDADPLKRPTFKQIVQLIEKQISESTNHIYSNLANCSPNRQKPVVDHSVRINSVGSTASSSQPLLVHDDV
GSK3α(h), sequence (P49840 whole entry): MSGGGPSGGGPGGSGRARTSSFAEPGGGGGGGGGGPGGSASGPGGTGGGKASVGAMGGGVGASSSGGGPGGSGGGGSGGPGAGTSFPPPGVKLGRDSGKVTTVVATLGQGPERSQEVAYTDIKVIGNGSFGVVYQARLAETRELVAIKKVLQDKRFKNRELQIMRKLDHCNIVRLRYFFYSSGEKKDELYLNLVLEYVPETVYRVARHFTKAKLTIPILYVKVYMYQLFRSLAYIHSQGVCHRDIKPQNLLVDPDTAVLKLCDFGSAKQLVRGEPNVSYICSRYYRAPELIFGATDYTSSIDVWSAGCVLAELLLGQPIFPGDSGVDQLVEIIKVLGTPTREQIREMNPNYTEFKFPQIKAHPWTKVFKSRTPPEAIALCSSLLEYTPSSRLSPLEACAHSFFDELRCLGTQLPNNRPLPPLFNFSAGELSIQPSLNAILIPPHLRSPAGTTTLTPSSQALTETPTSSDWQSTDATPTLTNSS

Cc1cc2c(F)c(Oc3nc(Nc4cc(C5CC5)[nH]n4)cc(N4CCN(C)CC4)n3)cc(F)c2[nH]1 [NTW-3475]
Activity % (ROCK-II(h)): 58% | Activity % (PKBα(h)): 109% | Activity % (CLK2(h)): 90% | Activity % (Ab1(Q252H)(h)): −2% | Activity % (CaMKIV(h)): 106% | Activity % (PRK2(h)): 30% | Activity % (FGFR3(h)): 0% | Activity % (PASK(h)): 91% | Activity % (MSK2(h)): 90% | Activity % (FGFR2(h)): 0% | Activity % (BTK(R28H)(h)): 103% | Activity % (TLK2(h)): 5% | Activity % (Ros(h)): 46% | Activity % (ACK1(h)): 4% | Activity % (cKit(h)): 84% | Activity % (Arg(h)): −3% | Activity % (TAO3(h)): 16% | Activity % (CDK2/cyclinE(h)): 89% | Activity % (Met(M1268T)(h)): 22% | Activity % (ALK4(h)): 28% | Activity % (CK2α2(h)): 115% | Activity % (Ab1(m)): −2% | Activity % (GSK3α(h)): 96% | Activity % (Ab1(Y253F)(h)): −2% | Activity % (Lck(h) activated): −1% | Activity % (NEK3(h)): 82% | Activity % (CDK7/cyclinH/MAT1(h)): 44% | Activity % (Syk(h)): 84% | anti-tumor effect against pancreatic carcinoma cells ([1]; 25, 50 mg/kg, 5-day on, two-day off for two cycles): strong anti-tumor effect | anti-tumor effect of the combination ([1]; in combination with Abraxane): anti-tumor effect
